From publication PMC9532703, “A novel small molecule RK-019 inhibits FGFR2-amplification gastric cancer cell proliferation and induces apoptosis in vitro and in vivo” (Frontiers in Pharmacology, 2022)

Columns and labels:
Assay in all cases: Kinase selectivity panel
Format in all cases: biochemical
[1] = biological target: T1, A-Raf(h) (Homo sapiens, UniProt P10398); conditions: read-out: Inhibition(%) @ 1 µM RK-019
T1 construct: purchased Eurofins Discovery Services (KinaseProfiler)
Procedure, shortened: (§1)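 Recombinant human kinase incubated with 1 µM compound; ATP-site competition binding quantified in vitro as inhibition ratio.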

[2] = biological target: T2, B-Raf(V599E)(h) (Homo sapiens, UniProt P15056, V600E); conditions: read-out: Inhibition(%) @ 1 µM RK-019
T2 construct: purchased Eurofins Discovery Services (KinaseProfiler)
Procedure, shortened: as §1

[3] = biological target: T3, BIKe(h) (Homo sapiens, UniProt Q9NSY1); conditions: read-out: Inhibition(%) @ 1 µM RK-019
T3 construct: purchased Eurofins Discovery Services (KinaseProfiler)
Procedure, shortened: as §1

[4] = biological target: T4, BTK(R28H)(h) (Homo sapiens, UniProt Q06187, R28H); conditions: read-out: Inhibition(%) @ 1 µM RK-019
T4 construct: purchased Eurofins Discovery Services (KinaseProfiler)
Procedure, shortened: as §1

[5] = biological target: T5, BrSK2(h) (Homo sapiens, UniProt Q8IWQ3); conditions: read-out: Inhibition(%) @ 1 µM RK-019
T5 construct: purchased Eurofins Discovery Services (KinaseProfiler)
Procedure, shortened: as §1

[6] = biological target: T6, CDK2/cyclinA(h) (Homo sapiens, UniProt P24941); conditions: read-out: Inhibition(%) @ 1 µM RK-019
T6 construct: purchased Eurofins Discovery Services (KinaseProfiler)
Procedure, shortened: as §1

[7] = biological target: T7, CDK3/cyclinE(h) (Homo sapiens, UniProt Q00526); conditions: read-out: Inhibition(%) @ 1 µM RK-019
T7 construct: purchased Eurofins Discovery Services (KinaseProfiler)
Procedure, shortened: as §1

[8] = biological target: T8, CDKL3(h) (Homo sapiens, UniProt Q8IVW4); conditions: read-out: Inhibition(%) @ 1 µM RK-019
T8 construct: purchased Eurofins Discovery Services (KinaseProfiler)
Procedure, shortened: as §1

[9] = biological target: T9, CDKL4(h) (Homo sapiens, UniProt Q5MAI5); conditions: read-out: Inhibition(%) @ 1 µM RK-019
T9 construct: purchased Eurofins Discovery Services (KinaseProfiler)
Procedure, shortened: as §1

[10] = biological target: T10, CK2(h) (Homo sapiens, UniProt P68400); conditions: read-out: Inhibition(%) @ 1 µM RK-019
T10 construct: purchased Eurofins Discovery Services (KinaseProfiler)
Procedure, shortened: as §1

[11] = biological target: T11, CK2α2(h) (Homo sapiens, UniProt P19784); conditions: read-out: Inhibition(%) @ 1 µM RK-019
T11 construct: purchased Eurofins Discovery Services (KinaseProfiler)
Procedure, shortened: as §1

[12] = biological target: T12, CaMKI(h) (Homo sapiens, UniProt Q14012); conditions: read-out: Inhibition(%) @ 1 µM RK-019
T12 construct: purchased Eurofins Discovery Services (KinaseProfiler)
Procedure, shortened: as §1

[13] = biological target: T13, DYRK1A(h) (Homo sapiens, UniProt Q13627); conditions: read-out: Inhibition(%) @ 1 µM RK-019
T13 construct: purchased Eurofins Discovery Services (KinaseProfiler)
Procedure, shortened: as §1

[14] = biological target: T14, Flt4(h) (Homo sapiens, UniProt P35916)
T14 construct: purchased Eurofins Discovery Services (KinaseProfiler)
Procedure, shortened: as §1

[15] = biological target: T15, IKKε(h) (Homo sapiens, UniProt Q14164); conditions: read-out: Inhibition(%) @ 1 µM RK-019
T15 construct: purchased Eurofins Discovery Services (KinaseProfiler)
Procedure, shortened: as §1

[16] = biological target: T16, MAK(h) (Homo sapiens, UniProt P20794); conditions: read-out: Inhibition(%) @ 1 µM RK-019
T16 construct: purchased Eurofins Discovery Services (KinaseProfiler)
Procedure, shortened: as §1

[17] = biological target: T17, MAP4K5(h) (Homo sapiens, UniProt Q9Y4K4); conditions: read-out: Inhibition(%) @ 1 µM RK-019
T17 construct: purchased Eurofins Discovery Services (KinaseProfiler)
Procedure, shortened: as §1

[18] = biological target: T18, MLK3(h) (Homo sapiens, UniProt Q16584); conditions: read-out: Inhibition(%) @ 1 µM RK-019
T18 construct: purchased Eurofins Discovery Services (KinaseProfiler)
Procedure, shortened: as §1

[19] = biological target: T19, Met(Y1248C)(h) (Homo sapiens, UniProt P08581, Y1230C); conditions: read-out: Inhibition(%) @ 1 µM RK-019
T19 construct: purchased Eurofins Discovery Services (KinaseProfiler)
Procedure, shortened: as §1

[20] = biological target: T20, Mnk2(h) (Homo sapiens, UniProt Q9HBH9); conditions: read-out: Inhibition(%) @ 1 µM RK-019
T20 construct: purchased Eurofins Discovery Services (KinaseProfiler)
Procedure, shortened: as §1

[21] = biological target: T21, MuSK(h) (Homo sapiens, UniProt O15146); conditions: read-out: Inhibition(%) @ 1 µM RK-019
T21 construct: purchased Eurofins Discovery Services (KinaseProfiler)
Procedure, shortened: as §1

[22] = biological target: T22, NEK1(h) (Homo sapiens, UniProt Q96PY6); conditions: read-out: Inhibition(%) @ 1 µM RK-019
T22 construct: purchased Eurofins Discovery Services (KinaseProfiler)
Procedure, shortened: as §1

[23] = biological target: T23, PAK6(h) (Homo sapiens, UniProt Q9NQU5); conditions: read-out: Inhibition(%) @ 1 µM RK-019
T23 construct: purchased Eurofins Discovery Services (KinaseProfiler)
Procedure, shortened: as §1

[24] = biological target: T24, PI3 Kinase (p110a(H1047R)/p85a)(h) (Homo sapiens, UniProt P42336, H1047R); conditions: read-out: Inhibition(%) @ 1 µM RK-019
T24 construct: purchased Eurofins Discovery Services (KinaseProfiler)
Procedure, shortened: as §1

[25] = biological target: T25, PKA(h) (Homo sapiens, UniProt P17612); conditions: read-out: Inhibition(%) @ 1 µM RK-019
T25 construct: purchased Eurofins Discovery Services (KinaseProfiler)
Procedure, shortened: as §1

[26] = biological target: T26, PKCα(h) (Homo sapiens, UniProt P17252); conditions: read-out: Inhibition(%) @ 1 µM RK-019
T26 construct: purchased Eurofins Discovery Services (KinaseProfiler)
Procedure, shortened: as §1

[27] = biological target: T27, PKCγ(h) (Homo sapiens, UniProt P05129); conditions: read-out: Inhibition(%) @ 1 µM RK-019
T27 construct: purchased Eurofins Discovery Services (KinaseProfiler)
Procedure, shortened: as §1

[28] = biological target: T28, PKCι(h) (Homo sapiens, UniProt P41743); conditions: read-out: Inhibition(%) @ 1 µM RK-019
T28 construct: purchased Eurofins Discovery Services (KinaseProfiler)
Procedure, shortened: as §1

[29] = biological target: T29, Ret(V804M)(h) (Homo sapiens, UniProt P07949, V804M); conditions: read-out: Inhibition(%) @ 1 µM RK-019
T29 construct: purchased Eurofins Discovery Services (KinaseProfiler)
Procedure, shortened: as §1

[30] = biological target: T30, SAPK3(h) (Homo sapiens, UniProt P53778); conditions: read-out: Inhibition(%) @ 1 µM RK-019
T30 construct: purchased Eurofins Discovery Services (KinaseProfiler)
Procedure, shortened: as §1

[31] = biological target: T31, SIK3(h) (Homo sapiens, UniProt Q9Y2K2); conditions: read-out: Inhibition(%) @ 1 µM RK-019
T31 construct: purchased Eurofins Discovery Services (KinaseProfiler)
Procedure, shortened: as §1

[32] = biological target: T32, SRMS(h) (Homo sapiens, UniProt Q9H3Y6); conditions: read-out: Inhibition(%) @ 1 µM RK-019
T32 construct: purchased Eurofins Discovery Services (KinaseProfiler)
Procedure, shortened: as §1

[33] = biological target: T33, STK33(h) (Homo sapiens, UniProt Q9BYT3); conditions: read-out: Inhibition(%) @ 1 µM RK-019
T33 construct: purchased Eurofins Discovery Services (KinaseProfiler)
Procedure, shortened: as §1

[34] = biological target: T34, Tie2(Y897S)(h) (Homo sapiens, UniProt Q02763, Y897S); conditions: read-out: Inhibition(%) @ 1 µM RK-019
T34 construct: purchased Eurofins Discovery Services (KinaseProfiler)
Procedure, shortened: as §1

[35] = biological target: T35, ZIPK(h) (Homo sapiens, UniProt O43293); conditions: read-out: Inhibition(%) @ 1 µM RK-019
T35 construct: purchased Eurofins Discovery Services (KinaseProfiler)
Procedure, shortened: as §1

[36] = biological target: T36, p70S6K(h) (Homo sapiens, UniProt P23443); conditions: read-out: Inhibition(%) @ 1 µM RK-019
T36 construct: purchased Eurofins Discovery Services (KinaseProfiler)
Procedure, shortened: as §1

T14 sequence (P35916 25-1363): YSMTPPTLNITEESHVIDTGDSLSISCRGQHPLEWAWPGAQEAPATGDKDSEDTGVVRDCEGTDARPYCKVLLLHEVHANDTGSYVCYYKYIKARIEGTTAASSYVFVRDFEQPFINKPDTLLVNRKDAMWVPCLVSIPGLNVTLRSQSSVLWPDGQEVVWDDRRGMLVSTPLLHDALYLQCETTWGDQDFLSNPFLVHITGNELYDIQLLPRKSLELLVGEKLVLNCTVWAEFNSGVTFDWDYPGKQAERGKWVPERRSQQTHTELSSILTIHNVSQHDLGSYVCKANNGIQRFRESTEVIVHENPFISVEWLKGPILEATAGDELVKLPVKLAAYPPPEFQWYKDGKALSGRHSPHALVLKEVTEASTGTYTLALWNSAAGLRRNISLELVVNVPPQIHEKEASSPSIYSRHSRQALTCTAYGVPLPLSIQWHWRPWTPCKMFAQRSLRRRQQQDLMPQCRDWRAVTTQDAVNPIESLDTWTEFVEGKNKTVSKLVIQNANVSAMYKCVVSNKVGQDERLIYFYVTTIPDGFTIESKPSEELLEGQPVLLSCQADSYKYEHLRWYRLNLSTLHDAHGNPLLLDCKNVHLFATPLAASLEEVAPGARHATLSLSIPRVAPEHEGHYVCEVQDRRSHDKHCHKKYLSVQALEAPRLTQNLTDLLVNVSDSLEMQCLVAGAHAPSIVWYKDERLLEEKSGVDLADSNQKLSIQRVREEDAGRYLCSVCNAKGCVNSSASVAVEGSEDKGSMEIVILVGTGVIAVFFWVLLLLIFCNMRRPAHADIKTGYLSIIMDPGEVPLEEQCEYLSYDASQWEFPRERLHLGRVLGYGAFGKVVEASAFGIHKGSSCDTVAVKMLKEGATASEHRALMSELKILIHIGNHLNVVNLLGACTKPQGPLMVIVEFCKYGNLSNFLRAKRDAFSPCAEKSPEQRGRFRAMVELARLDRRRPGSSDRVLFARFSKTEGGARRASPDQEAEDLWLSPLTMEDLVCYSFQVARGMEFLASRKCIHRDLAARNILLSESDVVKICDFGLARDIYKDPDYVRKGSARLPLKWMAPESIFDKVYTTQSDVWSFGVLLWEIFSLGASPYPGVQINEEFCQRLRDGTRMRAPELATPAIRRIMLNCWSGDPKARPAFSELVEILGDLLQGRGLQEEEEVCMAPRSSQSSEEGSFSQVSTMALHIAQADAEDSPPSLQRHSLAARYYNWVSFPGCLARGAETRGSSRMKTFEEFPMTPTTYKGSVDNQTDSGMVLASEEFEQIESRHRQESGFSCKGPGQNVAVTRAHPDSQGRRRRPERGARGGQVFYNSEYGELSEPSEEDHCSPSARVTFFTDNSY
T11 sequence (P19784 whole entry): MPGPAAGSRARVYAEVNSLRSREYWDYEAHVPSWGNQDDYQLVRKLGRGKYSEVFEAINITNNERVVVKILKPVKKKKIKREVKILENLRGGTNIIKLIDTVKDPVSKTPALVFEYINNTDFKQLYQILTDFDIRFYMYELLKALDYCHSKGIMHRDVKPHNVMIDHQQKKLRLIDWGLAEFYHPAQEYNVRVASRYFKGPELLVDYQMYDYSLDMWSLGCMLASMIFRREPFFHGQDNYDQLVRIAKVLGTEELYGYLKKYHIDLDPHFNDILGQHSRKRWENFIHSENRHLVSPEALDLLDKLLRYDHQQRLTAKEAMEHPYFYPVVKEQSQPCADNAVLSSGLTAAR
T23 sequence (Q9NQU5 whole entry): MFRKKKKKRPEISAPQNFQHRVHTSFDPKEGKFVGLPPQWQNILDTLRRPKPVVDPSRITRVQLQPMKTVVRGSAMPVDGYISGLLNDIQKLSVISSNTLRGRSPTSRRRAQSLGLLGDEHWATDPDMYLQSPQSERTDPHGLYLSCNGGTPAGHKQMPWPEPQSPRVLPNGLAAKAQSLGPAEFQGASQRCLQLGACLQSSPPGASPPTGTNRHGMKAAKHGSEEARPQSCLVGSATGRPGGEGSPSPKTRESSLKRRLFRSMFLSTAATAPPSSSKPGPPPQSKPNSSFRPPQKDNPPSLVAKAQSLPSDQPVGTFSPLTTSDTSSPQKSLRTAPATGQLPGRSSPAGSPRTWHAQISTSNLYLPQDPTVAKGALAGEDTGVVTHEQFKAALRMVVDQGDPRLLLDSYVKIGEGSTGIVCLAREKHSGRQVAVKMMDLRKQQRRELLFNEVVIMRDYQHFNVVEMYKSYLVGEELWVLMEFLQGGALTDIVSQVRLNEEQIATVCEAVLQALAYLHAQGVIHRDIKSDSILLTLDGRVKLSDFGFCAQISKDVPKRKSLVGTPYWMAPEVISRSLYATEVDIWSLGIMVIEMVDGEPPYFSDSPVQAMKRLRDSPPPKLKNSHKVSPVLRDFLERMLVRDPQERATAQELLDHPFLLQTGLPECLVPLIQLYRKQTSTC
T31 sequence (Q9Y2K2 whole entry): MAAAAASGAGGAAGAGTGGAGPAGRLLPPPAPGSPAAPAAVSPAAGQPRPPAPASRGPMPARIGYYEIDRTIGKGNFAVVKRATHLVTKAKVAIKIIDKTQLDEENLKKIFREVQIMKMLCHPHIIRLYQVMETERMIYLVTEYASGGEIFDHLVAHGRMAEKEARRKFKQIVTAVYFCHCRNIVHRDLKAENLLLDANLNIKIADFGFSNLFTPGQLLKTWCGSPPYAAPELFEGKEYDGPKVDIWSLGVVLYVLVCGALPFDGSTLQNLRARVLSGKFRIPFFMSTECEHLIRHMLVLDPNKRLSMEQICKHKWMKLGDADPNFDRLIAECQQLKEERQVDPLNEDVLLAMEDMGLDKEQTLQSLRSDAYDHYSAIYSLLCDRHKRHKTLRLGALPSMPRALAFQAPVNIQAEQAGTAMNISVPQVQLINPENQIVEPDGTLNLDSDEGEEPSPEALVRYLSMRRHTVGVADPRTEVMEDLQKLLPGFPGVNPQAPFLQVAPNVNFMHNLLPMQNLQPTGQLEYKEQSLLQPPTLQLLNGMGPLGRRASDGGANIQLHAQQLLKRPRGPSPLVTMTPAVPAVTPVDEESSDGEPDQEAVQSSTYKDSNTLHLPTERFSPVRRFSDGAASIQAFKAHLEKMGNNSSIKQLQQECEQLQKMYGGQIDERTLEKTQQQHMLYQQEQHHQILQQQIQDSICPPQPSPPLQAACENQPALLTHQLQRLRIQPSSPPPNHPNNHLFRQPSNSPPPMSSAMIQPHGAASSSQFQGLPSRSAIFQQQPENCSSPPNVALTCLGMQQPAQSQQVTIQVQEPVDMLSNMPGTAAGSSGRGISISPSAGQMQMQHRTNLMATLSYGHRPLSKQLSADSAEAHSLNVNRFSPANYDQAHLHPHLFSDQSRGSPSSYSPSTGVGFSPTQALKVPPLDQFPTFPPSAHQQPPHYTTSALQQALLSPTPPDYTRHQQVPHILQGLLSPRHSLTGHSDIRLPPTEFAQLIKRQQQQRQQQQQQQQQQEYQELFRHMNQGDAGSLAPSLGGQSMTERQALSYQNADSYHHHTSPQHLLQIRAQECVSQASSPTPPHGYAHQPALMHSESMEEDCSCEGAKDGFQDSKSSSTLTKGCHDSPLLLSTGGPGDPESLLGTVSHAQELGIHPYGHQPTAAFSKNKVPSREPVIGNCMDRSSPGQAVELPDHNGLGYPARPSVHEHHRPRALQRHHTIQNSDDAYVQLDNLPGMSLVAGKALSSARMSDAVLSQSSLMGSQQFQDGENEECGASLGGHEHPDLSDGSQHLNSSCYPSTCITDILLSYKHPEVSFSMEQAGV
T3 sequence (Q9NSY1 whole entry): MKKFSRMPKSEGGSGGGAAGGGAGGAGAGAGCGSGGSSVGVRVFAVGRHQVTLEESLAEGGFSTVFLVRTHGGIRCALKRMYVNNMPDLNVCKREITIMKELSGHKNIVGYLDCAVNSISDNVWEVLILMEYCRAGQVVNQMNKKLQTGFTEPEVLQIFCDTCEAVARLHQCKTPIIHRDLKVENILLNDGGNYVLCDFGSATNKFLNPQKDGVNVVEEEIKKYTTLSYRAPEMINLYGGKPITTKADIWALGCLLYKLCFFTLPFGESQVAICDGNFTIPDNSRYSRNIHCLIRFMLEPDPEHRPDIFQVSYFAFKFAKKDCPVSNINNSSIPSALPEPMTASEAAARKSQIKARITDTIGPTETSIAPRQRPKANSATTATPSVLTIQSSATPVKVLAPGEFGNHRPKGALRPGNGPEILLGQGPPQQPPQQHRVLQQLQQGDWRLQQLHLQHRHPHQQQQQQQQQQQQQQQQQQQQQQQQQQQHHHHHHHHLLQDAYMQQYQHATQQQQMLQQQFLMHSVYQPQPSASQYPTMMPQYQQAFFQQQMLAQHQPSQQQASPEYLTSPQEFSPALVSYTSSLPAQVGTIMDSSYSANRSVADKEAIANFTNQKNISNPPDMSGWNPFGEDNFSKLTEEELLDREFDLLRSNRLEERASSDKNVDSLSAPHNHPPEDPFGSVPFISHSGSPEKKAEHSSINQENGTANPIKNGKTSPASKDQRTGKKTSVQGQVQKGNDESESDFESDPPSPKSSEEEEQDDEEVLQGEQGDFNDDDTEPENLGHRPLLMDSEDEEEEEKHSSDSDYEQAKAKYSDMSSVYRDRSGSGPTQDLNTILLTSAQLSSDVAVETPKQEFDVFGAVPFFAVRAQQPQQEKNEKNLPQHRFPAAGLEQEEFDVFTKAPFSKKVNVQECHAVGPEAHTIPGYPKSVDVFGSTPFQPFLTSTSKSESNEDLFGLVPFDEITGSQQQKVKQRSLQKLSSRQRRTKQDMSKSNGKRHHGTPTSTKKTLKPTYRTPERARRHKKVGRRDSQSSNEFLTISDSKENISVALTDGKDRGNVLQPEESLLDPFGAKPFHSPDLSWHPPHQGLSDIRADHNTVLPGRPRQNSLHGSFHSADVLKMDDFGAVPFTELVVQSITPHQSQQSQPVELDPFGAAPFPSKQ

Work on `COc1cc(OC)cc(N(CCN[C@H](C)CO)c2ccc3ncc(-c4cnn(C)c4)c(=O)n3c2)c1` [RK-019, (R)-7-((3,5-dimethoxyphenyl) (2-((1-hydroxypropan-2-yl)amino)ethyl)amino)-3-(1-methyl-1H-pyrazol-4-yl)-4H-pyrido [1,2-a]pyrimidin-4-one] yielded an activity at 1 µM [1] of 133%, an activity at 1 µM [2] of 70% and an activity at 1 µM [3] of 93%. For the same compound, the activity at 1 µM [4] was 83%, the activity at 1 µM [5] was 96% and the activity at 1 µM [6] was 115%. The activity at 1 µM [7] was 90%, the activity at 1 µM [8] was 102% and the activity at 1 µM [9] was 90%. For the same compound, the activity at 1 µM [10] was 112%, the activity at 1 µM [11] was 105% and the activity at 1 µM [12] was 101%. It also gave an activity at 1 µM [13] of 101%, an inhibition at 1 µM ([14]; FLT4, 1 µM, read-out: inhibition (hit in panel)) greater than 90% and an activity at 1 µM ([14]; Flt4(h), read-out: Inhibition(%) @ 1 µM RK-019) of 3%. The activity at 1 µM [15] was 107%, the activity at 1 µM [16] was 110% and the activity at 1 µM [17] was 103%. The activity at 1 µM [18] was 98%, the activity at 1 µM [19] was 85% and the activity at 1 µM [20] was 108%. For the same compound, the activity at 1 µM [21] was 105%, the activity at 1 µM [22] was 52% and the activity at 1 µM [23] was 96%. The activity at 1 µM [24] was 100%, the activity at 1 µM [25] was 94% and the activity at 1 µM [26] was 97%. For the same compound, the activity at 1 µM [27] was 92%, the activity at 1 µM [28] was 100% and the activity at 1 µM [29] was 56%. It also gave an activity at 1 µM [30] of 99%, an activity at 1 µM [31] of 104% and an activity at 1 µM [32] of 123%. For the same compound, the activity at 1 µM [33] was 98%, the activity at 1 µM [34] was 77% and the activity at 1 µM [35] was 96%. The activity at 1 µM [36] was 119%.
